What was measured:
St. aureus = assay: Antimicrobial testing, agar dilution method; assay type: cell-based, Staphylococcus aureus; details: after 10, 20, 40 and 60 min at all dilutions 1:100, 1:200, 1:400, 1:800
Protocol: (§1) The antimicrobial properties of the, 5-bis(4-methoxyphenyl)-1-hexyl-2-phenyl-1H-imidazole was studied by the method of agar dilution. Test solutions of each compound was prepared in concentration of 1% using dimethylformamide as a solvent then they are diluted in physiological solution to obtain the final experimental dilutions 1:100, 1:200, 1:400, 1:800. The effect of these substances are compared with furacillin in a controllable study. The testing microbes used were gram positive bacteria St. aureus, gram negative bacteria E. Coli, Ps. aeruginosa and Candida albicans fungi were taken. The experiments used for this survey were meat-pentonlu agar (EPA) for cultivation of bacteria and Saburo environment for fungi. Each experiment used 1 ml of test solution on each plate 500 min. Add 2 drops of emulsified with microbes feel. All experimental samples were taken from the agar after 10, 20, 40, 60 minutes in the environment on the basis of Patrk planted. Bacteria were cultivated at a temperature of 37° C. for 1 day and the mushroom was kept in a thermostat for […] at a temperature of 28° C. Then the results were checked.

E. Coli = assay: Antimicrobial testing, agar dilution method; assay type: cell-based, Escherichia coli; details: after 10, 20, 40 and 60 min at all dilutions 1:100, 1:200, 1:400, 1:800
Protocol: as §1

Ps. aeruginosa = assay: Antimicrobial testing, agar dilution method; assay type: cell-based, Pseudomonas aeruginosa; details: after 10, 20, 40 and 60 min at all dilutions 1:100, 1:200, 1:400, 1:800
Protocol: as §1

Candida albicans = assay: Antimicrobial testing, agar dilution method; assay type: cell-based; details: after 10, 20, 40 and 60 min at all dilutions 1:100, 1:200, 1:400, 1:800
Protocol: as §1

- melting point: 177 to 179 °C
SMILES: CCCCCCn1c(-c2ccccc2)nc(-c2ccc(OC)cc2)c1-c1ccc(OC)cc1 [4,5-bis(4-methoxyphenyl)-1-hexyl-2-phenyl-1H-imidazole]
- inhibition activity (in words) (St. aureus): higher inhibition activity
- inhibition activity (in words) (E. Coli): higher inhibition activity
- inhibition activity (in words) (Ps. aeruginosa): higher inhibition activity
- inhibition activity (in words) (Candida albicans): higher inhibition activity

From patent US12012385B1, “4,5-bis(4-methoxyphenyl)-1-hexyl-2-phenyl-1H-imidazole as an antimicrobial compound” (KING FAISAL UNIVERSITY, priority 2023, dated 2024)
